Reference: patent US10906890B2, “Triazole phenyl compounds as agonists of the APJ receptor” (AMGEN INC., priority 2016, dated 2021)

Columns and labels:
[1] = test system: Heart failure rat model (MI Rat Model); experiment: In vivo heart failure (MI) rat model, cardiac contractility; conditions: heart failure rats in vivo, acute settings, with ACE inhibitor captopril
Protocol: Based on the ex vivo findings in isolated heart assay, APJ agonists were dosed in vivo to investigate the translation of cardiac contractility in in vivo settings. Male Lewis rats (Charles River, USA) at 2-3 months of age were used for the study. Heart failure was induced by permanent ligation of the left descending coronary artery which results in injury to the heart with an ejection fraction of <35%. APJ agonists were administered dose dependently acutely for a period of 30 min. Administration of example compounds lead to an increase in cardiac contractility as measured by dP/dtmax (derivative of left ventricular pressure) (Table 29).

[2] = target: human APJ-AT1R (angiotensin Type 1) double stable CHO cell line (Homo sapiens (Human), UniProt P35414); experiment: IP1 accumulation (TR-FRET) with AngII in APJ-AT1R double stable CHO cells; type: cell-based; conditions: fixed concentration of agonist with different concentrations of AngII
Chain of human APJ-AT1R (angiotensin Type 1) double stable CHO cell line (P35414 whole entry): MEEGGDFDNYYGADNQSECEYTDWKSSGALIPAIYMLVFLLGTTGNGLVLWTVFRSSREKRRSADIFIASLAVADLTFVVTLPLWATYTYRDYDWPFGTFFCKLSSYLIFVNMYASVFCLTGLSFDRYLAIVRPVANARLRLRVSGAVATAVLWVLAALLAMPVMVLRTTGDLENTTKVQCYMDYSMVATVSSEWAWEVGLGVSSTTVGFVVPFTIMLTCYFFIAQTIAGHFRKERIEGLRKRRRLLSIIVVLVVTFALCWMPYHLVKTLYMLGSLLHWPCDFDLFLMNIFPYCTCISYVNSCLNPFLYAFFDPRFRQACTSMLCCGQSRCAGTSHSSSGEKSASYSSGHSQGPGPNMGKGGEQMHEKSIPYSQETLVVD
Protocol: Briefly, the CHO-K1 APJ/AT1R cells were seeded in culture medium of DMEM-F12 and 10% FBS at a density of 15 k/well in a 96 well plate overnight. The next day, the culture medium was replaced with medium containing no serum for 4 hours. The compound AngII at a range of concentrations (1 pM-10 μM) with or without different concentrations of APJ agonists were diluted in stimulation buffer and added to the cell plate. The plate was sealed and incubated for 1 hour. This was followed by addition of IP-d2 conjugate followed by europium cryptate antibody conjugate into the wells. The plate was sealed, followed with incubation for 2 hours at RT. Time-resolved fluorescence resonance energy (TR-FRET) at 620 nm and 665 nm was measured after 2 hours with an Envision reader. The signal ratios and delta F were calculated and the amount of IP1 produced was inversely proportional to the TR-FRET ratio, 665/620 nm.

human APJ receptor = human APJ receptor (Homo sapiens (Human), UniProt P35414); experiment: [35S]GTPγS binding assay on membranes from CHO cells stably expressing human APJ receptor; type: biochemical; conditions: means of several independent experiments, read-out: Activity hAPJ SPA EC50 IP
Chain of human APJ receptor (P35414 whole entry): as above
Summary of the method: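 Membranes from CHO cells stably expressing FLAG-tagged human APJ incubated with [35S]GTPγS in buffer with optimized GDP, MgCl2 and NaCl levels, 90 min at RT. Signal read by imaging; EC50 by non-linear regression from means of several independent experiments.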

Structure (SMILES)	EC50 (human APJ receptor)	other results
C[C@H](CS)C(=O)N1CCC[C@H]1C(=O)O [Captopril, captopril]	–	improvement in contractility or ejection fraction [1]: does not show a marked improvement in contractility or ejection fraction
CCCCc1nc(Cl)c(CO)n1Cc1ccc(-c2ccccc2-c2nn[nH]n2)cc1 [losartan]	–	positive cooperativity on AngII IP1 response [2]: relieved this cooperativity
COc1cccc(OC)c1-n1c(NS(=O)(=O)[C@@H](C)[C@H](C)c2ncc(Cl)cn2)nnc1-c1ccccc1 [Example 16.0, (2S,3R)-3-(5-chloro-2-pyrimidinyl)-N-(4-(2,6-dimethoxyphenyl)-5-phenyl-4H-1,2,4-triazol-3-yl)-2-butanesulfonamide]	0.2 nM	–
COc1ccnc(OC)c1-n1c(NS(=O)(=O)[C@@H](C)[C@H](C)c2cnc(C)cn2)nnc1-c1ccccc1 (single isomer, unassigned) [Example 55.0, (2S,3R,P)-N-(4-(2,4-dimethoxy-3-pyridinyl)-5-phenyl-4H-1,2,4-triazol-3-yl)-3-(5-methyl-2-pyrazinyl)-2-butanesulfonamide or (2S,3R,M)-N-(4-(2,4-dimethoxy-3-pyridinyl)-5-phenyl-4H-1,2,4-triazol-3-yl)-3-(5-methyl-2-pyrazinyl)-2-butanesulfonamide]	0.33 nM	–
COc1ccnc(OC)c1-n1c(NS(=O)(=O)[C@@H](C)[C@H](OC)c2ncc(C)cn2)nnc1-c1ccccc1 (single isomer, unassigned) [Example 24.0, (1R,2S,P)-N-(4-(2,4-dimethoxy-3-pyridinyl)-5-phenyl-4H-1,2,4-triazol-3-yl)-1-methoxy-1-(5-methyl-2-pyrimidinyl)-2-propanesulfonamide or (1R,2S,M)-N-(4-(2,4-dimethoxy-3-pyridinyl)-5-phenyl-4H-1,2,4-triazol-3-yl)-1-methoxy-1-(5-methyl-2-pyrimidinyl)-2-propanesulfonamide]	0.27 nM	–
COc1ccnc(OC)c1-n1c(NS(=O)(=O)[C@@H](C)[C@H](OC)c2ncc(C)cn2)nnc1-c1ccccc1 [Example 36.0, (1R,2S,P)-N-(4-(2,4-dimethoxy-3-pyridinyl)-5-phenyl-4H-1,2,4-triazol-3-yl)-1-methoxy-1-(5-methyl-2-pyrimidinyl)-2-propanesulfonamide and (1R,2S,S)-N-(4-(2,4-dimethoxy-3-pyridinyl)-5-phenyl-4H-1,2,4-triazol-3-yl)-1-methoxy-1-(5-methyl-2-pyrimidinyl)-2-propanesulfonamide]	1.9 nM	–
COc1cccc(OC)c1-n1c(NS(=O)(=O)[C@H]2CCCN(c3ncc(Cl)cn3)C2)nnc1-c1ccccc1 (single isomer, unassigned) [Example 35.0, (S)-1-(5-Chloropyrimidin-2-yl)-N-(4-(2,6-dimethoxyphenyl)-5-phenyl-4H-1,2,4-triazol-3-yl)piperidine-3-sulfonamide or (R)-1-(5-chloropyrimidin-2-yl)-N-(4-(2,6-dimethoxyphenyl)-5-phenyl-4H-1,2,4-triazol-3-yl)piperidine-3-sulfonamide]	280 nM	–
COc1ccnc(OC)c1-n1c(NS(=O)(=O)[C@@H](C)[C@H](OC)c2ncc(C)cn2)nnc1-c1ccccc1 (single isomer, unassigned) [Example 23.0, (1R,2S,P)-N-(4-(2,4-dimethoxy-3-pyridinyl)-5-phenyl-4H-1,2,4-triazol-3-yl)-1-methoxy-1-(5-methyl-2-pyrimidinyl)-2-propanesulfonamide or (1R,2S,M)-N-(4-(2,4-dimethoxy-3-pyridinyl)-5-phenyl-4H-1,2,4-triazol-3-yl)-1-methoxy-1-(5-methyl-2-pyrimidinyl)-2-propanesulfonamide]	5.9 nM	–
COc1cccc(OC)c1-n1c(NS(=O)(=O)[C@@H](C)[C@H](OC)c2ncc(C)cn2)nnc1-c1cccc2cnccc12 [Example 95.0]	340 nM	–
COc1cccc(OC)c1-n1c(NS(=O)(=O)[C@@H](C)[C@H](OC)c2ncc(Cl)cn2)nnc1-c1cccc2cn(C)nc12 [Example 91.0]	2 nM	–
COc1cccc(OC)c1-n1c(NS(=O)(=O)[C@@H](C)[C@H](OC)c2ncc(C)cn2)nnc1-c1cc(C(F)(F)F)cc(C(F)(F)F)c1 [Example 68.0, (1R,2S)-N-(5-(3,5-bis(trifluoromethyl)phenyl)-4-(2,6-dimethoxyphenyl)-4H-1,2,4-triazol-3-yl)-1-methoxy-1-(5-methyl-2-pyrimidinyl)-2-propanesulfonamide]	4.7 nM	–
COc1cccc(OC)c1-n1c(NS(=O)(=O)[C@@H](C)[C@H](OC)c2ncc(C)cn2)nnc1-c1ccc(C)cc1 [Example 78.0, (1R,2S)-N-(4-(2,6-dimethoxyphenyl)-5-(4-methylphenyl)-4H-1,2,4-triazol-3-yl)-1-methoxy-1-(5-methyl-2-pyrimidinyl)-2-propanesulfonamide]	2.4 nM	–
COc1cccc(OC)c1-n1c(NS(=O)(=O)[C@@H](C)[C@H](OC)c2ncc(C)cn2)nnc1-c1ccc2c(c1)CCO2 [Example 80.0, (1R,2S)-N-(5-(2,3-dihydro-1-benzofuran-5-yl)-4-(2,6-dimethoxyphenyl)-4H-1,2,4-triazol-3-yl)-1-methoxy-1-(5-methyl-2-pyrimidinyl)-2-propanesulfonamide]	3.5 nM	–
COc1ncnc(OC)c1-n1c(NS(=O)(=O)[C@H]2C[C@@H](OC(C)C)CN(c3ncc(F)cn3)C2)nnc1-c1ccccc1 (single isomer, unassigned) [Example 64.0, (3R,5S)-N-(4-(4,6-dimethoxy-5-pyrimidinyl)-5-phenyl-4H-1,2,4-triazol-3-yl)-1-(5-fluoro-2-pyrimidinyl)-5-(1-methylethoxy)-3-piperidinesulfonamide or (3S,5R)-N-(4-(4,6-dimethoxy-5-pyrimidinyl)-5-phenyl-4H-1,2,4-triazol-3-yl)-1-(5-fluoro-2-pyrimidinyl)-5-(1-methylethoxy)-3-piperidinesulfonamide]	4.7 nM	–
COc1ncnc(OC)c1-n1c(NS(=O)(=O)[C@@H](C)[C@H](OC)c2ncc(C)cn2)nnc1-c1cccc(Br)c1 [Example 1.0, (1R,2S)—N-(5-(3-Bromophenyl)-4-(4,6-dimethoxypyrimidin-5-yl)-4H-1,2,4-triazol-3-yl)-1-methoxy-1-(5-methylpyrimidin-2-yl)propane-2-sulfonamide]	4.2 nM	–
COc1ncnc(OC)c1-n1c(NS(=O)(=O)[C@@H](C)[C@H](C)c2ncc(C)cn2)nnc1-c1ccccc1 [Example 5.0, (2S,3R)-N-(4-(4,6-dimethoxy-5-pyrimidinyl)-5-phenyl-4H-1,2,4-triazol-3-yl)-3-(5-methyl-2-pyrimidinyl)-2-butanesulfonamide]	2.3 nM	–
COc1cccc(OC)c1-n1c(NS(=O)(=O)[C@H]2C[C@@H](OC(C)C)CN(c3ncc(F)cn3)C2)nnc1-c1ccccc1 (single isomer, unassigned) [Example 58.0, (3R,5S)-N-(4-(2,6-dimethoxyphenyl)-5-phenyl-4H-1,2,4-triazol-3-yl)-1-(5-fluoro-2-pyrimidinyl)-5-(1-methylethoxy)-3-piperidinesulfonamide or (3S,5R)-N-(4-(2,6-dimethoxyphenyl)-5-phenyl-4H-1,2,4-triazol-3-yl)-1-(5-fluoro-2-pyrimidinyl)-5-(1-methylethoxy)-3-piperidinesulfonamide]	0.94 nM	–
COc1ncnc(OC)c1-n1c(NS(=O)(=O)[C@@H](C)[C@H](OC)c2ncc(C)cn2)nnc1-c1ccccc1 [Example 4.0, (1R,2S)-N-(4-(4,6-dimethoxypyrimidin-5-yl)-5-phenyl-4H-1,2,4-triazol-3-yl)-1-methoxy-1-(5-methylpyrimidin-2-yl)propane-2-sulfonamide]	2.9 nM	–
COc1cccc(OC)c1-n1c(NS(=O)(=O)CCc2ccc(F)cc2C#N)nnc1-c1ccccc1 [Example 12.0, 2-(2-cyano-4-fluorophenyl)-N-(4-(2,6-dimethoxyphenyl)-5-phenyl-4H-1,2,4-triazol-3-yl)ethanesulfonamide]	8.5 nM	–
CO[C@H](c1ncc(Cl)cn1)[C@H](C)S(=O)(=O)Nc1nnc(-c2cccc3nn(C)cc23)n1C1CC1 [Example 115.0]	11 nM	–
COc1ncnc(OC)c1-n1c(NS(=O)(=O)[C@H]2CCCN(c3ncc(C)cn3)C2)nnc1-c1ccccc1 (single isomer, unassigned) [Example 30.0, (S)—N-(4-(4,6-Dimethoxypyrimidin-5-yl)-5-phenyl-4H-1,2,4-triazol-3-yl)-1-(5-methylpyrimidin-2-yl)piperidine-3-sulfonamide or (R)—N-(4-(4,6-dimethoxypyrimidin-5-yl)-5-phenyl-4H-1,2,4-triazol-3-yl)-1-(5-methylpyrimidin-2-yl)piperidine-3-sulfonamide]	100 nM	–
COCCn1c(NS(=O)(=O)[C@@H](C)[C@H](OC)c2ncc(Cl)cn2)nnc1-c1ccccc1 [Example 129.0]	14 nM	–
CO[C@H](c1ncc(Cl)cn1)[C@H](C)S(=O)(=O)Nc1nnc(-c2ccccc2)n1C(C)C [Example 110.0]	75 nM	–
COc1ncnc(OC)c1-n1c(NS(=O)(=O)[C@@H](C)[C@H](O)c2ncc(C)cn2)nnc1-c1ccccc1 [Example 20.0, (1R,2S)-N-(4-(4,6-dimethoxy-5-pyrimidinyl)-5-phenyl-4H-1,2,4-triazol-3-yl)-1-hydroxy-1-(5-methyl-2-pyrimidinyl)-2-propanesulfonamide]	5.3 nM	–
